US9765035B2 (priority 2013, dated 2017)
Read-outs that look alike come from different tables or passages of the source.

Molecular target: T1, human PRMT1 (Homo sapiens, UniProt Q99873)
T1 construct: GST-tagged PRMT1; made in house; host or cells: High Five insect cells (baculovirus)
Test: biochemical
Source text: General Materials. S-adenosylmethionine (SAM), S-adenosylhomocysteine (SAH), bicine, Tween20, dimethylsulfoxide (DMSO), bovine skin gelatin (BSG), and Tris(2-carboxyethyl)phosphine hydrochloride solution (TCEP) were purchased from Sigma-Aldrich at the highest level of purity possible. ^3H-SAM was purchase from American Radiolabeled Chemicals with a specific activity of 80 Ci/mmol. 384-well streptavidin Flashplates were purchased from PerkinElmer.
Substrates. Peptide representative of human histone H4 residues 36-50 was synthesized with an N-terminal linker-affinity tag motif and a C-terminal amide cap by 21st Century Biochemicals. The peptide was purified by high-performance liquid chromatography (HPLC) to greater than 95% purity and confirmed by liquid chromatography mass spectrometry (LC-MS). The sequence was Biot-Ahx-[…]-amide (SEQ ID NO.:1).
Molecular Biology: Full-length human PRMT1 isoform 1 (NM_001536.5) transcript clone was amplified from an HEK 293 cDNA library, incorporating flanking 5′ sequence encoding a FLAG tag ([…]) (SEQ ID NO.:2) fused directly to Met 1 of PRMT1. The amplified gene was subcloned into pFastBacI (Life Technologies) modified to encode an N-terminal GST tag and a TEV cleavage sequence
Protein Expression. Recombinant baculovirus were generated according to Bac-to-Bac kit instructions (Life Technologies). Protein over-expression was accomplished by infecting exponentially growing High Five insect cell culture at 1.5×10^6 cell/ml with 1:100 ratio of virus. Infections were carried out at 27° C. for 48 hours, harvested by centrifugation, and stored at −80° C. for purification.
Protein Purification. […] GST-tagged PRMT1 was eluted with 50 mM Tris, 2 mM glutathione, pH 7.8, dialysed in buffer A and concentrated to 1 mg/mL. The purity of recovered protein was 73%. Reference: Wasilko, D. J. and S. E. Lee: “TIPS: titerless infected-cells preservation and scale-up” Bioprocess J., 5 (2006), pp. 29-32.
General Procedure for PRMT1 Enzyme Assays on Peptide Substrates. The assays were all performed in a buffer consisting of 20 mM Bicine (pH=7.6), 1 mM TCEP, 0.005% BSG, and 0.002% Tween 20, prepared on the day of use. Compounds in 100% DMSO (1 ul) were spotted into a polypropylene 384-well V-bottom plates (Greiner) using a Platemate Plus outfitted with a 384-channel head (Thermo Scientific). DMSO (1 ul) was added to Columns 11, 12, 23, 24, rows A-H for the maximum signal control and 1 ul of SAH, a known product and inhibitor of PRMT1, was added to columns 11, 12, 23, 24, rows I-P for the minimum signal control. A cocktail (40 ul) containing the PRMT1 enzyme was added by Multidrop Combi (Thermo-Fisher). The compounds were allowed to incubate with PRMT1 for 30 min at room temperature, then a cocktail (10 ul) containing SAM and peptide was added to initiate the reaction (final volume=51 ul). The final concentrations of the components were as follows: PRMT1 was 0.5 nM, ^3H-SAM was 200 nM, non-radiolabeled SAM was 1.5 uM, peptide was 20 nM, SAH in the minimum signal control wells was 1 mM, and the DMSO concentration was 2%. The assays were stopped by the addition of non-radiolabeled SAM (10 ul) to a final concentration of 300 uM, which dilutes the ^3H-SAM to a level where its incorporation into the peptide substrate is no longer detectable. 50 ul of the reaction in the 384-well polypropylene plate was then transferred to a 384-well Flashplate and the biotinylated peptides were allowed to bind to the streptavidin surface for at least 1 hour before being washed once with 0.1% Tween20 in a Biotek EL×405 plate washer. The plates were then read in a PerkinElmer TopCount plate reader to measure the quantity of ^3H-labeled peptide bound to the Flashplate surface, measured as disintegrations per minute (dpm) or alternatively, referred to as counts per minute (cpm).
Where dpm=disintegrations per minute, cmpd=signal in assay well, and min and max are the respective minimum and maximum signal controls. […]

[1] = biochemical evaluation, peptide substrate, read-out: PRMT1 IC50
[2] = single experiment or average of multiple experiments, read-out: PRMT1 biochemical evaluation (numerical)

T1 sequence (Q99873 other isoform, or with tags, fused parts or gaps): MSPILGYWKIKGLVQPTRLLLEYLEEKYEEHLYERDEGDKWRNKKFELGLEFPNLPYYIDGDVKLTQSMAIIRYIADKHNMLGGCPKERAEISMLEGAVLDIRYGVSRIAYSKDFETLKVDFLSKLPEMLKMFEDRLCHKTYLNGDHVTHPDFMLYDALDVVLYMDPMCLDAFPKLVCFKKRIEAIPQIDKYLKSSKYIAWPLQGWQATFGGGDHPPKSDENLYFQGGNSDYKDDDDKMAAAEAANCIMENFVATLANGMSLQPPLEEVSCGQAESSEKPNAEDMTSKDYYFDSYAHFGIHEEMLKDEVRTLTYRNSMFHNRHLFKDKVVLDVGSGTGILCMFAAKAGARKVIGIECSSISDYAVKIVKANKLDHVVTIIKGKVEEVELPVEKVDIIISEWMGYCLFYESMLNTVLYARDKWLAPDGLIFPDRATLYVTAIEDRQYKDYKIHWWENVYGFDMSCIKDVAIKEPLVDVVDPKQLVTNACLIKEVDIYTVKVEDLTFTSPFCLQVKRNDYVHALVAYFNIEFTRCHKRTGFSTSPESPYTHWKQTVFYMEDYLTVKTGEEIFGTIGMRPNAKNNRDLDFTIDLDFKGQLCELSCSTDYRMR

| Structure (SMILES) | IC50 [1] [nM] | IC50 [2] [nM] |
| --- | --- | --- |
| CNCCN(C)Cc1n[nH]c2cccc(OCCC(O)CO)c12 (stereo not shown) [Compound 40] | 101 to 1000 | 3910 |
| CNCCN(C)Cc1n[nH]c2cccc(OCCCC(O)CO)c12 (stereo not shown) [Compound 41, 5-((3-((methyl(2-(methylamino)ethyl)amino)methyl)-1H-indazol-4-yl)oxy)pentane-1,2-diol] | 101 to 1000 | 67.6 |
| CNCCN(C)Cc1n[nH]c2ccc(C(C)C)cc12 [Compound 42, N^1-((5-isopropyl-1H-indazol-3-yl)methyl)-N^1,N^2-dimethylethane-1,2-diamine] | ≤ 100 | 774 |
| CNCCN(C)Cc1n[nH]c2ccc(N3CCC4(CCCCC4)CC3)cc12 [Compound 43, N^1-((5-(3-azaspiro[5.5]undecan-3-yl)-1H-indazol-3-yl)methyl)-N^1,N^2-dimethylethane-1,2-diamine] | < 100 | 434 |
| CNCCN(C)Cc1n[nH]c2ccc(C3CCOCC3)cc12 [Compound 44, N^1,N^2-dimethyl-N^1-((5-(tetrahydro-2H-pyran-4-yl)-1H-indazol-3-yl)methyl)ethane-1,2-diamine] | < 100 | 43.6 |
| CNCCN(C)Cc1n[nH]c2ccc(C3=CCOCC3)cc12 [Compound 45] | < 100 | 37.4 |
| CNCCN(C)Cc1n[nH]c2ccc(N3CCCCC3)cc12 [Compound 46, N^1,N^2-dimethyl-N^1-((5-(piperidin-1-yl)-1H-indazol-3-yl)methyl)ethane-1,2-diamine] | < 100 | 21.2 |
| CNCCN(C)Cc1n[nH]c2ccc(C3CCCCC3)cc12 [Compound 47, N^1-((5-cyclohexyl-1H-indazol-3-yl)methyl)-N^1,N^2-dimethylethane-1,2-diamine] | ≤ 100 | 55.5 |
| CNCCN(C)Cc1n[nH]c2ccc(C3=CCCCC3)cc12 [Compound 48] | ≤ 100 | 34 |
| CNCCN(C)Cc1n[nH]c2ccc(Oc3ccccc3C(F)(F)F)cc12 [Compound 49] | 3010 to 10000 | 15.7 |
| CNCCN(C)Cc1n[nH]c2ccc(OCC3CCOCC3)cc12 [Compound 50] | 3010 to 10000 | 11 |
| CNCCN(C)Cc1n[nH]c2ccc(OCC3CCN(C(C)=O)CC3)cc12 [Compound 51] | 1010 to 3000 | 5520 |
| CNCCN(C)Cc1n[nH]c2ccc(OCC3CCCC3)cc12 [Compound 52] | 1010 to 3000 | 3690 |
| CNCCN(C)Cc1c2cc(OCc3ccc(C#N)cc3)ccc2nn1C1CCOCC1 [Compound 53] | 3010 to 10000 | 1760 |
| CNCCN(C)Cc1n[nH]c2ccc(OCC3CCCCC3)cc12 [Compound 54] | 101 to 1000 | 2000 |
| CNCCN(C)Cc1n[nH]c2ccc(Oc3ccc(C)cc3)cc12 [Compound 55] | < 100 | 6550 |
| CNCCN(C)Cc1n[nH]c2ccc(Oc3ccccc3OC(C)C)cc12 [Compound 56] | < 100 | 994 |
| CNCCN(C)Cc1n[nH]c2ccc(Oc3ccc(Cl)cc3)cc12 [Compound 57] | 101 to 1000 | 43.3 |

| Structure (SMILES) | IC50 [1] [nM] | IC50 [2] [nM] |
| --- | --- | --- |
| CNCCN(C)Cc1n[nH]c2ccc(OC3CCN(C(C)=O)CC3)cc12 [Compound 58, 1-(4-((3-((methyl(2-(methylamino)ethyl)amino)methyl)-1H-indazol-5-yl)oxy)piperidin-1-yl)ethan-1-one] | 101 to 1000 | 57.9 |
| CNCCN(C)Cc1n[nH]c2ccc(Oc3ccc(OC)cc3)cc12 [Compound 59] | < 100 | 101 |
| CNCCN(C)Cc1n[nH]c2ccc(Oc3ccccc3C)cc12 [Compound 60] | < 100 | 353 |
| CNCCN(C)Cc1n[nH]c2ccc(Oc3ccc(OC(C)C)cc3)cc12 [Compound 61] | < 100 | 40.8 |
| CNCCN(C)Cc1nn(C(C)C)c2ccc(OCc3ccc(C#N)cc3)cc12 [Compound 62] | 1010 to 3000 | 56.5 |
| CCOc1ccc2[nH]nc(CN(C)CCNC)c2c1 [Compound 63] | 101 to 1000 | 98.6 |
| CNCCN(C)Cc1n[nH]c2ccc(OC(C)C)cc12 [Compound 64] | ≤ 100 | 2630 |
| CCCOc1ccc2[nH]nc(CN(C)CCNC)c2c1 [Compound 65] | ≤ 100 | 128 |
| CNCCN(C)Cc1n[nH]c2ccc(OCc3cccc(C(N)=O)c3)cc12 [Compound 66] | < 100 | 35 |
| CNCCN(C)Cc1n[nH]c2ccc(Oc3cccc(OC(C)C)c3)cc12 [Compound 67] | < 100 | 24.8 |
| CNCCN(C)Cc1n[nH]c2ccc(OCc3ccc(C(F)(F)F)cc3)cc12 [Compound 68] | 101 to 1000 | 91.5 |
| CNCCN(C)Cc1n[nH]c2ccc(OCc3ccc(C(N)=O)cc3)cc12 [Compound 69] | 101 to 1000 | 30.3 |
| CNCCN(C)Cc1n[nH]c2ccc(OCc3cccc(NC(C)=O)c3)cc12 [Compound 70] | 101 to 1000 | 188 |
| CNCCN(C)Cc1n[nH]c2ccc(OCc3ccc(C(C)(C)C)cc3)cc12 [Compound 71] | 101 to 1000 | 203 |
| CNCCN(C)Cc1n[nH]c2ccc(OCc3cccc(C(F)(F)F)c3)cc12 [Compound 72] | < 100 | 182 |
| CNCCN(C)Cc1n[nH]c2ccc(OCc3cccc(C(C)=O)c3)cc12 [Compound 73] | < 100 | 143 |
| CNCCN(C)Cc1n[nH]c2ccc(OCc3cccc(C(C)(C)C)c3)cc12 [Compound 74] | 101 to 1000 | 23 |
